In PMC10812557, “Progressive Design of a Ranatuerin-2 Peptide from Amolops wuyiensis: Enhancement of Bioactivity and In Vivo Efficacy” (Antibiotics, 2023):
Peptide text beside a SMILES is read from it.

Experiments:
U251MG = type: cell-based, human; details: 24 h
Experimental: (§1) Five human cancer cell lines of non-small-cell lung cancer H838, human prostate carcinoma PC-3, human neuronal glioblastoma U251MG, human breast cancer cell MCF-7, and colorectal carcinoma HCT116 were used to detect the antiproliferative abilities of R2AW and its five analogues. According to the procedures in a previous article, cells (8000 cells/well) were seeded into the 96-well tissue culture plates and incubated at 37 °C with 5% CO2 overnight. The solutions of R2AW and its analogues at concentrations of 10^−4 M to 10^−9 M were prepared in the serum-free medium. Next, cells in each well were treated with 100 μL of each peptide solution for 24 h. Subsequently, 10 μL of 5 mg/mL MTT (3-(4, 5-Dimethylthiazol-2-yl-)-2, 5-Diphehyltetrazolium Bromide) was added to each well followed by 37 °C incubation for 2 h. After that, the liquid in each well was removed and 100 μL of DMSO was added to dissolve the purple formazan. The plate was placed on a shaking incubator for 10 min, and the absorbance was detected at 550 nm using a Synergy HT plate reader (Biotech, Minneapolis, MN, USA).

HCT116 = type: cell-based, human; details: 24 h
Experimental: as §1

PC-3 = type: cell-based, human; details: 24 h
Experimental: as §1

MCF-7 = type: cell-based, human; details: 24 h
Experimental: as §1

H838 = type: cell-based, human; details: 24 h
Experimental: as §1

[1] = system: K. pneumoniae (ATCC 43816); type: cell-based; details: ATCC 43816, 18 h
How it was run: (§2)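 Bacteria grown overnight at 37 °C were diluted to 5 × 10^5 CFU/mL in log phase and incubated 18 h at 37 °C with 2-fold peptide dilutions, with absorbance read at 550 nm. MIC was the lowest concentration preventing growth. For MBC, clear wells were plated on Mueller Hinton agar overnight, and MBC was the lowest concentration giving no colonies.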

E. coli (ATCC 8739) [2] = type: cell-based; details: ATCC 8739, 18 h
How it was run: as §2

[3] = system: P. aeruginosa (ATCC 9027); type: cell-based; details: ATCC 9027, 18 h
How it was run: as §2

[4] = system: Galleria mellonella larvae; assay: Toxicity in waxworms with no MRSA treatment; type: in vivo; details: 10 mg/kg
[5] = system: five human cancer cell lines; type: cell-based; details: 24 h
Experimental: as §1

S. aureus (NCTC 10788) [6] = assay: microbe, parasite or virus in culture; type: cell-based; details: NCTC 10788, 18 h
How it was run: as §2

E. faecium (NTCC 12697) [7] = assay: microbe, parasite or virus in culture; type: cell-based; details: NTCC 12697, 18 h
How it was run: as §2

MRSA (NCTC 12493) [8] = assay: microbe, parasite or virus in culture; type: cell-based; details: MRSA (NCTC 12493)
How it was run: as §2

MRSA (NCTC 12493) [9] = type: cell-based, methicillin-resistant Staphylococcus aureus; details: NCTC 12493
Experimental: (§3) As a previous study described in detail, the ability of R2AW and its analogues to inhibit and eradicate the formation of biofilm was investigated. The MBIC is the lowest concentration which inhibits the formation of biofilm. The MBEC is the minimum concentration that eradicates biofilm. Six bacterial strains were used, as described above. Briefly, the bacteria were cultured and then diluted to 5 × 10^5 CFU/mL. In MBIC assays, 1 μL of each concentration of R2AW and its analogues (ranging from 512 × 10^2 μM to 100 μM) was mixed with 99 μL of diluted bacterial suspension in a 96-well plate for 16-20 h at 37 °C. As for MBEC assays, 100 μL of cultured bacteria were seeded in a 96-well plate and incubated on the shaking incubator at 37 °C overnight for biofilm formation. Subsequently, each well was rinsed twice with 100 μL sterile PBS to remove planktonic cells, and then replaced with 100 μL of each concentration (ranging from 512 μM to 1 μM) of peptides. After 24 h incubation, the biofilm was washed twice with 100 μL of PBS and fixed with methanol. Next, the same volume of 0.1% crystal violet solution (Sigma-Aldrich, Gillingham, UK) was added to each well to stain the biofilm. After that, 100 μL of 30% of acetic acid (Sigma-Aldrich, Gillingham, UK) was transferred to each well for dissolution. The solutions were transferred into a new 96-well plate and the absorbances of wells was monitored using a Synergy HT plate reader set to 595 nm.

[10] = system: P. aeruginosa (ATCC 9027); type: cell-based, Pseudomonas aeruginosa
Experimental: as §3

S. aureus (NCTC 10788) [11] = type: cell-based, Staphylococcus aureus
Experimental: as §3

E. faecium (NTCC 12697) [12] = type: cell-based
Experimental: as §3

E. coli (ATCC 8739) [13] = type: cell-based, Escherichia coli
Experimental: as §3

[14] = system: K. pneumoniae (ATCC 43816); type: cell-based, Klebsiella pneumoniae
Experimental: as §3

CSCC[C@H](NC(=O)[C@H](Cc1ccccc1)NC(=O)CN)C(=O)N[C@@H](CCCCN)C(=O)N[C@H](C(=O)N[C@@H](C)C(=O)N[C@@H](CCCCN)C(=O)N[C@@H](CC(N)=O)C(=O)N[C@H](C(=O)N[C@@H](C)C(=O)N[C@@H](CCCCN)C(=O)N[C@@H](CC(N)=O)C(=O)N[C@H](C(=O)N[C@@H](C)C(=O)N[C@@H](C)C(=O)N[C@H](C(=O)N[C@@H](CC(C)C)C(=O)N[C@@H](CC(C)C)C(=O)N[C@@H](CCCCN)C(=O)N[C@@H](CC(C)C)C(=O)N[C@@H](CC(C)C)C(=O)N[C@@H](CCCCN)C(N)=O)[C@@H](C)O)C(C)C)C(C)C)[C@@H](C)O [[Lys^4,19, Leu^20]R2AW(1-22)-NH2] (H-GFMKTAKNVAKNVAATLLKLLK-NH2)
IC50 (U251MG): 12.4 µM | IC50 (HCT116): 9.28 µM | IC50 (PC-3): 3.67 µM | IC50 (MCF-7): 10.6 µM | IC50 (H838): 7.83 µM | MBC [1]: 18.9 µg/mL | MIC [1]: 9.4 µg/mL | MBC (E. coli (ATCC 8739) [2]): 9.4 µg/mL | MIC (E. coli (ATCC 8739) [2]): 4.7 µg/mL | MBC [3]: 37.7 µg/mL | MIC [3]: 18.9 µg/mL | death of larvae with no MRSA treatment [4]: no death | IC50 [5]: 3.67 to 12 µM | MBC (S. aureus (NCTC 10788) [6]): 4.7 µg/mL | MIC (S. aureus (NCTC 10788) [6]): 4.7 µg/mL | MBC (E. faecium (NTCC 12697) [7]): 18.9 µg/mL | MIC (E. faecium (NTCC 12697) [7]): 9.4 µg/mL | MBC (MRSA (NCTC 12493) [8]): 4.7 µg/mL | MIC (MRSA (NCTC 12493) [8]): 4.7 µg/mL | MBEC (MRSA (NCTC 12493) [9]): > 512 µM | MBIC (MRSA (NCTC 12493) [9]): 4 µM | MBEC [10]: 512 µM | MBIC [10]: 16 µM | MBEC (S. aureus (NCTC 10788) [11]): 256 µM | MBIC (S. aureus (NCTC 10788) [11]): 4 µM | MBEC (E. faecium (NTCC 12697) [12]): > 512 µM | MBIC (E. faecium (NTCC 12697) [12]): 8 µM | MBEC (E. coli (ATCC 8739) [13]): 256 µM | MBIC (E. coli (ATCC 8739) [13]): 4 µM | MBEC [14]: 256 µM | MBIC [14]: 8 µM
